From article PMC9936527, “Tandemly duplicated CYP82Ds catalyze 14-hydroxylation in triptolide biosynthesis and precursor production in Saccharomyces cerevisiae” (Nature Communications, 2023) come the findings set out here.

Common to all, as to assay type: biochemical, Tripterygium wilfordii
Common to all, as to conditions: NADPH with regenerating system, TwPOR3, Tris-HCl pH 7.5, 30 °C, 30 min; 14-hydroxylation

For assay [1], the system named is T1, CYP82D274.
T1 construct: full-length CYP cloned from root cDNA, coexpressed with TwPOR3 (pESC-LEU) in Saccharomyces cerevisiae BY4741; yeast microsomes; with NADPH--cytochrome P450 reductase
Description: yeast microsomes, product […] by LC-TQ-MS/MS, Michaelis-Menten fit.

The test system of the next assay is T2, CYP82D263.
T2 construct: full-length CYP cloned from root cDNA, coexpressed with TwPOR3 (pESC-LEU) in Saccharomyces cerevisiae BY4741; yeast microsomes; with NADPH--cytochrome P450 reductase
The assay is described as above.

Assay [2] concerns T1, CYP82D274. Description: yeast microsomes, product […] by GC-MS, Michaelis-Menten fit.

In general, Km refers to the substrate concentration at which the rate is half of its maximum. For the molecule `CC(C)c1ccc2c(c1)CC[C@H]1[C@](C)(C(=O)O)CCC[C@]21C` [compound 7, dehydroabietic acid], the Michaelis constant (Km) with CYP82D274 [1] was 990 ± 170 nM; in the assay on CYP82D263, 8.42 ± 1.89 µM.

For the molecule `CC(C)C1=CCC2=C(CC[C@H]3C(C)(C)CCC[C@]23C)C1` [compound 5, miltiradiene], the Km with CYP82D274 [2] was found to be 47.3 ± 13 µM.
